Results on two compounds are retold here after patent publication US9648872B2, “Water dispersible granule composition” (priority 2014, dated 2017).

For series [1] the following is noted: cited from earlier work.
Series [2] is described as follows: Solubility of active ingredient. The format is physicochemical. The text has this: Formulations of water dispersible granules comprising microcapsules encapsulating active ingredients with higher water solubilities: • a. […] When attempting to prepare water dispersible granules comprising microcapsules of Thiamethoxam as per an embodiment of this invention, it was observed that Thiamethoxam was not soluble in the solvent C-9. It is observed that thiamethoxam decomposed immediately beyond its melting point. On attempting to add methylene diphenyl diisocyanate (MDI) in molten Thiamethoxam, it polymerized immediately due to high temperature. Thus Thiamethoxam could not be microencapsulated and it was not possible to prepare its water dispersible granular formulation. • b. […] A water dispersible granular composition comprising microcapsules of 25% Propoxur within a polyurea shell wall with Gohensol GL-03 was made, according to an embodiment of the invention, including maltodextrin as a water soluble suspension adjuvant in the filler base, along with clay, sodium lignosulfonate and alkyl naphthalene sulfonate (Supragil WP). The suspensibility observed was 85%. A water dispersible granule composition comprising microcapsules of 25% Propoxur was prepared with the microcapsules having a polyurea shell wall and polyvinyl alcohol Gohensol GL-03. […]

Converted amounts (≈) assume the structure as drawn.

For `CNC(=O)Oc1ccccc1OC(C)C` [Propoxur], the solubility in water in series [1] was 1800 µg/mL (≈ 8.6 mM).

As for `CN1COCN(Cc2cnc(Cl)s2)/C1=N\[N+](=O)[O-]` [Thiamethoxam], the “solubility in the solvent C-9” value in series [2] is given as “not soluble”.
